Laboratory results from patent US20230086303A1 (priority 2016, published 2023).
Converted amounts (≈) assume the structure as drawn. Starred links: 1 amine or outer side, 2 acyl side, 3 side chain; linkers in the order of their positions; H or OH if unused. Positions of bridges follow the written chain, without caps; N, C: chain ends. Non-standard residues stand in square brackets, D forms with d. Residues, ends and D or L forms follow the SMILES beside them. *: point of attachment. pTerphenylCO(4''-OnC5H11) = CCCCCOc1ccc(-c2ccc(-c3ccc(C(=O)*)cc3)cc2)cc1; Orn(4R-OH,5R-OH) = O=C([C@H](C[C@@H](O)[C@@H](O)N[*:3])N[*:1])[*:2]; hTyr(3S-OH,4S-OH) = N[C@H](C(=O)O)[C@H](O)[C@@H](O)c1ccc(O)cc1; Pro(3S-OH,4S-Me) = C[C@H]1CN[C@H](C(=O)O)[C@H]1O; Hyp = O=C(O)[C@@H]1C[C@@H](O)CN1

Assay: not given
Conditions: cited from earlier work

| SMILES | water solubility |
| --- | --- |
| C[C@]12CC3C[C@](C)(C1)C[C@@](N)(C3)C2 [free base of memantine, 3,5-dimethyladamantan-1-amine] | 900 µg/mL (≈ 5.02 mM) |

Assay: not given
Conditions: in vivo; cited from earlier work

| SMILES | half-life |
| --- | --- |
| C[C@@H]1[C@H](O)[C@@H](C)/C=C/C=C/C=C/C=C/C=C/C=C/C=C/[C@H](O[C@@H]2O[C@H](C)[C@@H](O)[C@H](N)[C@@H]2O)C[C@@H]2O[C@](O)(C[C@@H](O)C[C@@H](O)[C@H](O)CC[C@@H](O)C[C@@H](O)CC(=O)O[C@H]1C)C[C@H](O)[C@H]2C(=O)O [amphotericin] | greater than 48 hours |
| CCCCCOc1ccc(-c2ccc(-c3ccc(C(=O)N[C@H]4C[C@@H](O)[C@@H](O)NC(=O)[C@@H]5[C@@H](O)[C@@H](C)CN5C(=O)[C@H]([C@@H](C)O)NC(=O)[C@H]([C@H](O)[C@@H](O)c5ccc(O)cc5)NC(=O)[C@@H]5C[C@@H](O)CN5C(=O)[C@H]([C@@H](C)O)NC4=O)cc3)cc2)cc1 [anidulafungin] ({pTerphenylCO(4''-OnC5H11)}-[Orn(4R-OH,5R-OH)]T[Hyp][hTyr(3S-OH,4S-OH)]T[Pro(3S-OH,4S-Me)]; lactam 1-C) | greater than 48 hours |
| NC(=O)N1c2ccccc2C=Cc2ccccc21 [carbamazepine] | greater than 48 hours |
| O=C1CN=C(c2ccccc2Cl)c2cc([N+](=O)[O-])ccc2N1 [clonazepam] | greater than 48 hours |
| CCCCCCCCc1ccc(CCC(N)(CO)CO)cc1 [fingolimod] | greater than 48 hours |
| CCC1(c2ccccc2)C(=O)NC(=O)N(C)C1=O (stereo not shown) [mephobarbital] | greater than 48 hours |
| CNCCC=C1c2ccccc2CCc2ccccc21 [nortriptyline] | greater than 48 hours |
| Cc1cc2c(s1)Nc1ccccc1N=C2N1CCN(C)CC1 [olanzapine] | greater than 48 hours |
| CCC1(c2ccccc2)C(=O)NC(=O)NC1=O [phenobarbital] | greater than 48 hours |
| CO[C@H]1C[C@@H]2CC[C@@H](C)[C@@](O)(O2)C(=O)C(=O)N2CCCC[C@H]2C(=O)O[C@H]([C@H](C)C[C@@H]2CC[C@@H](O)[C@H](OC)C2)CC(=O)[C@H](C)/C=C(\C)[C@@H](O)[C@@H](OC)C(=O)[C@H](C)C[C@H](C)/C=C/C=C/C=C/1C [sirolimus] | greater than 48 hours |

Assay: Gastrointestinal related adverse events in clinical study
Conditions: 10 mg/day donepezil administered transdermally versus orally
Protocol: The number of subjects with treatment related adverse events is assessed daily during the 36 day confinement period and for 7 visits over a 21 day wash-out period. Assessment of local skin irritation in the subjects of Arm 1 will also be assessed daily during the 36 day confinement period and for 7 visits over a 21 day wash-out period. Skin irritation is assessed using an 8 point categorical scale of no irritation; minimal erythema, barely perceptible; definite erythema readily visible; minimal edema or minimal popular response; erythema and papules; definite edema; erythema, edema and papules; vesicular eruption; strong reaction, spreading beyond application site.

| SMILES | number of subjects experiencing diarrhea, transdermally versus orally | number of subjects experiencing nausea, transdermally versus orally |
| --- | --- | --- |
| COc1cc2c(cc1OC)C(=O)C(CC1CCN(Cc3ccccc3)CC1)C2 (stereo not shown) [donepezil] | two-fold lower | four-fold lower |
